The values that follow come from patent publication US20240132492A1, “PYRIDOPYRIMIDINE-BASED COMPOUND AND APPLICATION THEREOF” (JINAN UNIVERSITY, priority 2021, published 2024).

What all share (assay type): cell-based
One assay addresses AKT3 (Homo sapiens, UniProt Q9Y243). In words: Western Blot, degradation of AKT3 protein in H1975-OR cells. Conditions: 1000 nM, 24 hours, maximum degradation rate. The arrangement: endogenous in cells; host or cells: H1975-OR (osimertinib-resistant H1975). The protocol: (§1) Cell line: Non-small cell lung cancer H1975-OR cell line, which is an Osimertinib resistant H1975 cell line, and could be obtained through low dose gradual addition culture. Specific method: H1975 cells were spread in a 10 cm culture dish at a convergence rate of 60-70%, added 50 nM of Osimertinib to the culture medium. After the cell state stabilized, the concentration of Osimertinib was gradually double to 3 μM.
(§2) Conventional Western Blot (immunoblotting) was used for detection, as follows: a certain number of H1975-OR cells were planted on a 96 well plate, adherent cultured in an incubator overnight, and added a certain concentration of compound to act for 24 hours. 1×SDS lysis buffer with protease and phosphatase inhibitors was used to lyse cells. Cell lysates were separated by SDS-PAGE and transferred to PVDF membrane. Then, at room temperature, the PCDF membrane was taken out and immersed in a sealing solution (5% BSA TBS solution containing 0.5% Tween-20) for sealing treatment for 1 hour, and then incubated with a specific primary antibody at 4° C. overnight. The imprints were washed with TBST and incubated with horseradish peroxidase (HRP) labeled secondary antibodies at room temperature for 2 hours. Finally, ECL plus fluorescence detection reagent (Thermo Scientific, Waltham, MA) was used for protein development, and the Amersham Imager 600 system (GE, America) was used for photography. The detection results were processed using ImageJ software to obtain the grayscale value G (Density).

The target of another assay is T1, AKT1 (Homo sapiens, UniProt P31749).
T1 construct: AKT1, AKT2, and AKT3 proteins in H1975-OR cells; endogenous in cells; host or cells: H1975-OR (osimertinib-resistant H1975)
T1 sequence (P31749 whole entry): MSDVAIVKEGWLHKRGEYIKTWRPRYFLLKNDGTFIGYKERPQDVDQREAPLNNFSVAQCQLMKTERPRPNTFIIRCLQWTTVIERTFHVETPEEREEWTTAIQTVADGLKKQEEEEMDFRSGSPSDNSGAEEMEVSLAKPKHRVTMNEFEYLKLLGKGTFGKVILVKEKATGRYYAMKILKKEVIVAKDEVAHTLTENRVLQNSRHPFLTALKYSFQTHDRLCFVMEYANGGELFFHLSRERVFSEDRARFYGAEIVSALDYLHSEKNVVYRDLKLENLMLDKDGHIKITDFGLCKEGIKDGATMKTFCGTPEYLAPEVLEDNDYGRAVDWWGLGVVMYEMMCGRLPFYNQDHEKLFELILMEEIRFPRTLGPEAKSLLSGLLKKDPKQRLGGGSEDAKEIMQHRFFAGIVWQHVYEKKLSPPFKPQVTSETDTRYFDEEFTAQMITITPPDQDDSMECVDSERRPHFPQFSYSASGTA
In words: Western Blot, degradation of AKT1 protein in H1975-OR cells. Particulars: 1000 nM, 24 hours, maximum degradation rate. As to the method: as §1, §2
In general terms: In western blotting, separated proteins are transferred to a membrane and probed.

The target of another assay is T2, AKT2 (Homo sapiens, UniProt P31751).
T2 construct: AKT1, AKT2, and AKT3 proteins in H1975-OR cells; endogenous in cells; host or cells: H1975-OR (osimertinib-resistant H1975)
T2 sequence (P31751 whole entry): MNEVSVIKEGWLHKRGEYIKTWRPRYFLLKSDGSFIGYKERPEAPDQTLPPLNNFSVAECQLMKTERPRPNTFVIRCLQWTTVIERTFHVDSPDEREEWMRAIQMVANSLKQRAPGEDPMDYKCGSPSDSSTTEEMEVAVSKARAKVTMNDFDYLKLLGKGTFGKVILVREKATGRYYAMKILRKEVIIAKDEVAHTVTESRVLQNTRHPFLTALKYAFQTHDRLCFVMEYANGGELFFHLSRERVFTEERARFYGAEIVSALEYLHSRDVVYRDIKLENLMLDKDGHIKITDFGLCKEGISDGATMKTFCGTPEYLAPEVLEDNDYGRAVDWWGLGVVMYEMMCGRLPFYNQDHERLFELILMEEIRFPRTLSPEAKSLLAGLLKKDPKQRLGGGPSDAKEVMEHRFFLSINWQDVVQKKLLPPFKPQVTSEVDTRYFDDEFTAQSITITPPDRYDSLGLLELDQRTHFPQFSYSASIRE
In words: Western Blot, degradation of AKT2 protein in H1975-OR cells. Particulars: 1000 nM, 24 hours, maximum degradation rate. As to the method: as §1, §2

A further assay concerns H1975. In words: CCK-8 tumor cell proliferation, H1975. Particulars: Homo sapiens, NCI-H1975, H1975 cells, 72 hours. The protocol: (§3) Tumor cells (see Table 2 to Table 5) were inoculated in 96-well plates in complete culture medium (2000-3000 cells/well). After overnight incubation, the compounds with different concentrations (0.000508 μM-10 μM) were used to treat the cells separately for 72 hours. CCK-8 (Cell Counting Kit 8, Dojindo Laboratories, Kumamoto, Japan) experiment was used to evaluate cell proliferation. GraphPad Prism 5.0 software (La Jolla, CA) was used to calculate the half-maximal inhibitory concentration (IC50) values by fitting the concentration response curve. Each IC50 value was represented as an average value±SD.

The test system of a further assay is H1975OR. In words: CCK-8 tumor cell proliferation, H1975OR. Conditions: H1975OR cells (Osimertinib resistant), 72 hours. As to the method: as §1, §3

AKT3, sequence (Q9Y243 whole entry): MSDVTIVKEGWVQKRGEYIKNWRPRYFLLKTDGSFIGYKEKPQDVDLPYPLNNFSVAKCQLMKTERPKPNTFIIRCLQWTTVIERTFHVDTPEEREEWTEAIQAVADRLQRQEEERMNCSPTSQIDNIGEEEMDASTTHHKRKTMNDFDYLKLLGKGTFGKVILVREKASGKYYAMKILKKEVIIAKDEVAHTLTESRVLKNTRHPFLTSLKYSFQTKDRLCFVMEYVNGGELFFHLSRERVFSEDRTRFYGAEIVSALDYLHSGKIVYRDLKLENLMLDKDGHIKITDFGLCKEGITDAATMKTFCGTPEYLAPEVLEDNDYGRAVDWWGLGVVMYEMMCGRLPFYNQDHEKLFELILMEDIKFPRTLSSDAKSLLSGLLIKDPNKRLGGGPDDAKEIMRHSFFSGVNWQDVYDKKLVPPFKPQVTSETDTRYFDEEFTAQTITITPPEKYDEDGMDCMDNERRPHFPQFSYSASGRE

In the case of `COc1cc(OCCOCCCCCCCCCCCCOCCC23CC4CC(CC(C4)C2)C3)ccc1Nc1ncc2c(C)cc(=O)n(-c3cccc(NC(=O)C4CC4)c3)c2n1` [ZX-HYT-38, N-(3-(2-((4-(2-((12-(2-((3R, 5R, 7R)-adamantan-1-yl)ethoxy)dodecyl)oxy)ethoxy)-2-methoxyphenyl)amino)-5-methyl-7-oxypyridino [2,3-d]pyrimidin-8 (7H)-yl)phenyl) cyclopropane formamide], the maximal degradation (Dmax) (usually the largest share of the target that was removed) at 1 µM on AKT3 is 16.2%; at AKT1 it was 0%; on AKT2, 0%.
Consider `COc1cc(N2CCN(CCCCCCCCCCCCNC(=O)CC34CC5CC(CC(C5)C3)C4)CC2)ccc1Nc1ncc2c(C)cc(=O)n(-c3cccc(NCC4CNC4)c3)c2n1` [ZX-HYT-44, 2-((3R, 5R, 7R)-adamantan-1-yl)-N-(12-(4-(4-((8-(3-((azacyclobutane-3-ylmethyl)amino)phenyl)-5-methyl-7-oxy-7,8-dihydropyridino [2,3-d]pyrimidin-2-yl)amino)-3-methoxyphenyl)piperazin-1-yl)dodecanyl) acetamide], for which the figures for the concentration for half-maximal inhibition (IC50) in the assay with H1975 and with H1975OR were 5.39 ± 0.293 µM and 8.09 ± 0.432 µM, respectively. The figures for the Dmax at 1 µM on AKT3, on AKT1 and on AKT2 were 40.1%, 22.4% and 23.6%, respectively.
With `COc1cc(OCCCCCCCCCCCCNC(=O)CC23CC4CC(CC(C4)C2)C3)ccc1Nc1ncc2c(C)cc(=O)n(-c3cccc(NC(=O)C4CC4)c3)c2n1` [ZX-HYT-28, N-(3-(2-((4-((12-(2-((3R, 5R, 7R)-adamantan-1-yl)acetylamino)dodecyl)oxy)-2-methoxyphenyl)amino)-5-methyl-7-oxypyrimidino [2,3-d]pyrimidin-8 (7H)-yl)phenyl) cyclopropane formamide], the results for the 50% inhibitory concentration (IC50) in the assay with H1975 and in the assay with H1975OR were 0.645 µM and 0.177 µM, respectively.
As to `CCc1cccc(-n2c(=O)cc(C)c3cnc(Nc4ccc(N5CCN(CCCCCCCCCCCCNC(=O)CC67CC8CC(CC(C8)C6)C7)CC5)cc4OC)nc32)c1` [ZX-HYT-16, 2-((3R, 5R, 7R)-adamantan-1-yl)-N-(12-(4-(4-(8-(3-ethylphenyl)-5-methyl-7-oxy-7,8-dihydropyridino [2,3-d]pyrimidin-2-yl)amino)-3-methoxyphenyl)piperazin-1-yl) dodecyl) acetamide], the Dmax at 1 µM at AKT3 is 70.3%; on AKT1, 0%; on AKT2, 31.4%.
For `COc1cc(N2CCN(CCCCCCCCCCCCNC(=O)CC34CC5CC(CC(C5)C3)C4)CC2)ccc1Nc1ncc2c(C)cc(=O)n(-c3cccc(NC4CCN(C)CC4)c3)c2n1` [ZX-HYT-18, 2-((3R, 5R, 7R)-adamantan-1-yl)-N-(12-(4-(3-methoxy-4-(5-methyl-8-(3-(1-methylpipe-4-yl)amino)phenyl)-7-oxo-7,8-dihydropyridino [2,3-d]pyrimidin-2-yl)amino)phenyl) piperazin-1-yl) dodecyl) acetamide] the same measures were 30.6%, 0% and 0%.
In the case of `COc1cc(N2CCN(CCCCCCCCCCCCNC(=O)CC34CC5CC(CC(C5)C3)C4)CC2)ccc1Nc1ncc2c(C)cc(=O)n([C@H]3CCC[C@@H](C(=O)NC4CC4)C3)c2n1` [ZX-HYT-21, (1R, 3S)-3-(2-(4-(4-(12-(2-(((3R, 5R, 7R)-adamantan-1-yl)acetylamino)dodecyl)piperazin-1-yl)-2-methoxyphenyl)amino)-5-methyl-7-oxypyridino [2,3-d]pyrimidin-8 (7H)-yl)-N-cyclopropylcyclohexane-1-carboxylamide], the Dmax at 1 µM on AKT3 was found to be 6.8%; at AKT1 it was 0%; at AKT2, 0%.
On to `COc1cc(N2CCN(CCCCCCCCCCCCNC(=O)CC34CC5CC(CC(C5)C3)C4)CC2)ccc1Nc1ncc2c(C)cc(=O)n([C@H]3CCC[C@@H](NC(=O)C4CC4)C3)c2n1` [ZX-HYT-23], for which the Dmax at 1 µM at AKT3 was found to be 41.4%; at AKT1 it was 0%; on AKT2 it was 0%.
